# Laboratory results taken from patent publication US10189841B2, “Purinones as ubiquitin-specific protease 1 inhibitors” (Forma Therapeutics, Inc., priority 2015, dated 2019).
# Target: USP1 (construct USP1 (I-785, GG670, 671AA)/UAF1 (I-677)-Flag) (Homo sapiens (Human), UniProt O94782, G670A/G671A)
# Assay: Ubiquitin-Rhodamine 110 assay for USP1 activity
# Assay type: biochemical
# Conditions: USP1/UAF1 25 pM, Ub-Rh110 25 nM, 30 min preincubation
# Outline: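 Ub-Rh110 (25 nM, ≪Km) cleavage read at ex 485/em 535 in Tris pH 8.0, CaCl2, GSH, Prionex, Triton X-100. The screen used 10 µM compound, 100 pM USP1/UAF1 and 45 min at RT.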
# Chain of USP1 (construct USP1 (I-785, GG670, 671AA)/UAF1 (I-677)-Flag) (O94782 whole entry G670A/G671A): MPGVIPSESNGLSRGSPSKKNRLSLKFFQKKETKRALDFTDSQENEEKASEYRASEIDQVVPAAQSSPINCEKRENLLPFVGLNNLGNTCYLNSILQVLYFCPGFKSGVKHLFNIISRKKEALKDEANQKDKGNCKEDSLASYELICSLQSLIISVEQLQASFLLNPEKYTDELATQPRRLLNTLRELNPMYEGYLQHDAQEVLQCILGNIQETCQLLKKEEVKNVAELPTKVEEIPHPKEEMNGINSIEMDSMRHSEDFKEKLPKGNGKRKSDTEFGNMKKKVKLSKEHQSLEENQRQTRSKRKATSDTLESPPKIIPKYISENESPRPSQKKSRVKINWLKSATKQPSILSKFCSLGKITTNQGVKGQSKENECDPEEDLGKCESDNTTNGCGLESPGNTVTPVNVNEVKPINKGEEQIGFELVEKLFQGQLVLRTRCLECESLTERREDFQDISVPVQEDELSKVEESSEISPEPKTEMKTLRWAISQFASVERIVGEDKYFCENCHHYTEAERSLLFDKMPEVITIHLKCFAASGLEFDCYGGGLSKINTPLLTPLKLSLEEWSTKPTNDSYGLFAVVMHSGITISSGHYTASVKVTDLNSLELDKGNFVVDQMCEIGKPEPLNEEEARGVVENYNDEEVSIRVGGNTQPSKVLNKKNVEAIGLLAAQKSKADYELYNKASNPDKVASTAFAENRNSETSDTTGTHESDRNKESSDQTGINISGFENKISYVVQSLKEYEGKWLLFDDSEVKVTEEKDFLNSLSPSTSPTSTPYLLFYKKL
# Chain of USP1 (construct USP1 (I-785, GG670, 671AA)/UAF1 (I-677)-Flag) (Q8TAF3 whole entry partner): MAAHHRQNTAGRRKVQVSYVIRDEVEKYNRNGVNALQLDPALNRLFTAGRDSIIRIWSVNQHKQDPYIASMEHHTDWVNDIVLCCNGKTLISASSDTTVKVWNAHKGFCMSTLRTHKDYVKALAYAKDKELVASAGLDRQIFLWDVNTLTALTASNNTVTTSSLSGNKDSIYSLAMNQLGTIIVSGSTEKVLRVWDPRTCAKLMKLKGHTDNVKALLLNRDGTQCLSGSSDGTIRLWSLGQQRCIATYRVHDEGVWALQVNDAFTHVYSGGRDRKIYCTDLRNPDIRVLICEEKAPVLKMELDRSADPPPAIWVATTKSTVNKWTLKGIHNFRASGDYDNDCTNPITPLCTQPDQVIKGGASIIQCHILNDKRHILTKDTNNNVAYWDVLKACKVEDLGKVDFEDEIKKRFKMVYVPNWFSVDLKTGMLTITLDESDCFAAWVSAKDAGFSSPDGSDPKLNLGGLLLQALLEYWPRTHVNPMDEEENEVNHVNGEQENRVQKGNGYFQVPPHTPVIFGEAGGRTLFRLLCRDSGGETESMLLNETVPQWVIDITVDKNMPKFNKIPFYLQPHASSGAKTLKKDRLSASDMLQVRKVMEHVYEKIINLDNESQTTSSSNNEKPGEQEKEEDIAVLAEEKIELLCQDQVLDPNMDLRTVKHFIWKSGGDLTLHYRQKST
row,SMILES,IC50
1,"CC(C)c1ccccc1-c1ncc2[nH]c(=O)n(Cc3ccc(C(=O)NC4(c5ccccc5)CCCC4)cc3)c2n1 [Compound I-359, 4-((2-(2-isopropylphenyl)-8-oxo-7,8-dihydro-9H-purin-9-yl)methyl)-N-(1-phenylcyclopentyl)benzamide]",50 to 200 nM
2,"CC(C)c1ccccc1-c1ncc2[nH]c(=O)n(Cc3ccc(C(=O)NCc4nccn4C)cc3)c2n1 [Compound I-360, 4-((2-(2-isopropylphenyl)-8-oxo-7,8-dihydro-9H-purin-9-yl)methyl)-N-((1-methyl-1H-imidazol-2-yl)methyl)benzamide]",200 to 2000 nM
3,"CC(C)c1ccccc1-c1ncc2[nH]c(=O)n(Cc3ccc(C(=O)NCc4cnn(C)c4)cc3)c2n1 [Compound I-361, 4-((2-(2-isopropylphenyl)-8-oxo-7,8-dihydro-9H-purin-9-yl)methyl)-N-((1-methyl-1H-pyrazol-4-yl)methyl)benzamide]",200 to 2000 nM
4,"CCN(CC)C(=O)c1ccc(Cn2c(=O)[nH]c3cnc(-c4ccccc4C(C)C)nc32)cc1 [Compound I-362, N,N-diethyl-4-((2-(2-isopropylphenyl)-8-oxo-7,8-dihydro-9H-purin-9-yl)methyl)benzamide]",< 50 nM
5,"CC(C)c1ccccc1-c1ncc2[nH]c(=O)n(Cc3ccc(C(=O)N4CCOCC4)cc3)c2n1 [Compound I-363, 2-(2-isopropylphenyl)-9-(4-(morpholine-4-carbonyl)benzyl)-7,9-dihydro-8H-purin-8-one]",50 to 200 nM
6,"CC(C)c1ccccc1-c1ncc2[nH]c(=O)n(Cc3ccc(C(=O)N(C)C4CCCCC4)cc3)c2n1 [Compound I-364, N-cyclohexyl-4-((2-(2-isopropylphenyl)-8-oxo-7,8-dihydro-9H-purin-9-yl)methyl)-N-methylbenzamide]",< 50 nM
7,"CC(C)c1ccccc1-c1ncc2[nH]c(=O)n(Cc3ccc(C(=O)N(C)Cc4ccc(F)cc4)cc3)c2n1 [Compound I-365, N-(4-fluorobenzyl)-4-((2-(2-isopropylphenyl)-8-oxo-7,8-dihydro-9H-purin-9-yl)methyl)-N-methylbenzamide]",50 to 200 nM
8,"CC1CCN(C(=O)c2ccc(Cn3c(=O)[nH]c4cnc(-c5ccccc5C(C)C)nc43)cc2)CC1 [Compound I-366, 2-(2-isopropylphenyl)-9-(4-(4-methylpiperidine-1-carbonyl)benzyl)-7,9-dihydro-8H-purin-8-one]",50 to 200 nM
9,"CC(C)c1ccccc1-c1ncc2[nH]c(=O)n(Cc3ccc(C(=O)N(C)C4CCOCC4)cc3)c2n1 [Compound I-367, 4-((2-(2-isopropylphenyl)-8-oxo-7,8-dihydro-9H-purin-9-yl)methyl)-N-methyl-N-(tetrahydro-2H-pyran-4-yl)benzamide]",50 to 200 nM
10,"COCC1CCCN(C(=O)c2ccc(Cn3c(=O)[nH]c4cnc(-c5ccccc5C(C)C)nc43)cc2)C1 (stereo not drawn) [Compound I-368, 2-(2-isopropylphenyl)-9-(4-(3-(methoxymethyl)piperidine-1-carbonyl)benzyl)-7,9-dihydro-8H-purin-8-one]",50 to 200 nM
11,"CC(C)c1ccccc1-c1ncc2[nH]c(=O)n(Cc3ccc(C(=O)N4CCC[C@H]4C)cc3)c2n1 [Compound I-369, (R)-2-(2-isopropylphenyl)-9-(4-(2-methylpyrrolidine-1-carbonyl)benzyl)-7,9-dihydro-8H-purin-8-one]",< 50 nM
12,"COCCN(C(=O)c1ccc(Cn2c(=O)[nH]c3cnc(-c4ccccc4C(C)C)nc32)cc1)C(C)C [Compound I-370, N-isopropyl-4-((2-(2-isopropylphenyl)-8-oxo-7,8-dihydro-9H-purin-9-yl)methyl)-N-(2-methoxyethyl)benzamide]",50 to 200 nM
13,"Cc1nc(CN(C)C(=O)c2ccc(Cn3c(=O)[nH]c4cnc(-c5ccccc5C(C)C)nc43)cc2)cs1 [Compound I-371, 4-((2-(2-isopropylphenyl)-8-oxo-7,8-dihydro-9H-purin-9-yl)methyl)-N-methyl-N-((2-methylthiazol-4-yl)methyl)benzamide]",50 to 200 nM
14,"CC(C)c1ccccc1-c1ncc2[nH]c(=O)n(Cc3ccc(C(=O)Nc4nccn4C)cc3)c2n1 [Compound I-372, 4-((2-(2-isopropylphenyl)-8-oxo-7,8-dihydro-9H-purin-9-yl)methyl)-N-(1-methyl-1H-imidazol-2-yl)benzamide]",50 to 200 nM
15,"CCN(C)C(=O)c1ccc(Cn2c(=O)[nH]c3cnc(-c4ccccc4C(C)C)nc32)cc1 [Compound I-373, N-ethyl-4-((2-(2-isopropylphenyl)-8-oxo-7,8-dihydro-9H-purin-9-yl)methyl)-N-methylbenzamide]",< 50 nM
16,"CCCN(C)C(=O)c1ccc(Cn2c(=O)[nH]c3cnc(-c4ccccc4C(C)C)nc32)cc1 [Compound I-374, 4-((2-(2-isopropylphenyl)-8-oxo-7,8-dihydro-9H-purin-9-yl)methyl)-N-methyl-N-propylbenzamide]",< 50 nM
17,"CC(C)c1ccccc1-c1ncc2[nH]c(=O)n(Cc3ccc(C(=O)N(C)C(C)C)cc3)c2n1 [Compound I-375, N-isopropyl-4-((2-(2-isopropylphenyl)-8-oxo-7,8-dihydro-9H-purin-9-yl)methyl)-N-methylbenzamide]",< 50 nM

row,SMILES,IC50
1,"CC(C)c1ccccc1-c1ncc2[nH]c(=O)n(Cc3ccc(C(=O)N(C)CCO)cc3)c2n1 [Compound I-376, N-(2-hydroxyethyl)-4-((2-(2-isopropylphenyl)-8-oxo-7,8-dihydro-9H-purin-9-yl)methyl)-N-methylbenzamide]",200 to 2000 nM
2,"CC(C)c1ccccc1-c1ncc2[nH]c(=O)n(Cc3ccc(C(=O)N4CC(O)C4)cc3)c2n1 [Compound I-377, 9-(4-(3-hydroxyazetidine-1-carbonyl)benzyl)-2-(2-isopropylphenyl)-7,9-dihydro-8H-purin-8-one]",> 2000 nM
3,"CC(C)c1ccccc1-c1ncc2[nH]c(=O)n(Cc3ccc(C(=O)N4CC[C@H](O)C4)cc3)c2n1 [Compound I-378, (S)-9-(4-(3-hydroxypyrrolidine-1-carbonyl)benzyl)-2-(2-isopropylphenyl)-7,9-dihydro-8H-purin-8-one]",200 to 2000 nM
4,"CC(C)c1ccccc1-c1ncc2[nH]c(=O)n(Cc3ccc(C(=O)N(C)C4CC4)cc3)c2n1 [Compound I-379, N-cyclopropyl-4-((2-(2-isopropylphenyl)-8-oxo-7,8-dihydro-9H-purin-9-yl)methyl)-N-methylbenzamide]",< 50 nM
5,"CC(C)c1ccccc1-c1ncc2[nH]c(=O)n(Cc3ccc(C(=O)N(C)CC(=O)N(C)C)cc3)c2n1 [Compound I-380, N-(2-(dimethylamino)-2-oxoethyl)-4-((2-(2-isopropylphenyl)-8-oxo-7,8-dihydro-9H-purin-9-yl)methyl)-N-methylbenzamide]",50 to 200 nM
6,"CC(C)c1ccccc1-c1ncc2[nH]c(=O)n(Cc3ccc(C(=O)NC4COC4)cc3)c2n1 [Compound I-381, 4-((2-(2-isopropylphenyl)-8-oxo-7,8-dihydro-9H-purin-9-yl)methyl)-N-(oxetan-3-yl)benzamide]",200 to 2000 nM
7,"CC(C)c1ccccc1-c1ncc2[nH]c(=O)n(Cc3ccc(C(=O)N4CCC[C@H]4CO)cc3)c2n1 [Compound I-382, (S)-9-(4-(2-(hydroxymethyl)pyrrolidine-1-carbonyl)benzyl)-2-(2-isopropylphenyl)-7,9-dihydro-8H-purin-8-one]",200 to 2000 nM
8,"CC(=O)N1CCN(C(=O)c2ccc(Cn3c(=O)[nH]c4cnc(-c5ccccc5C(C)C)nc43)cc2)CC1 [Compound I-383, 9-(4-(4-acetylpiperazine-1-carbonyl)benzyl)-2-(2-isopropylphenyl)-7,9-dihydro-8H-purin-8-one]",200 to 2000 nM
9,"COCCO[C@H]1CCN(C(=O)c2ccc(Cn3c(=O)[nH]c4cnc(-c5ccccc5C(C)C)nc43)cc2)C1 [Compound I-384, (S)-2-(2-isopropylphenyl)-9-(4-(3-(2-methoxyethoxy)pyrrolidine-1-carbonyl)benzyl)-7,9-dihydro-8H-purin-8-one]",200 to 2000 nM
10,"CC(C)c1ccccc1-c1ncc2[nH]c(=O)n(Cc3ccc(C(=O)N4C[C@@H](C)O[C@@H](C)C4)cc3)c2n1 [Compound I-385, 9-(4-((2R,6S)-2,6-dimethylmorpholine-4-carbonyl)benzyl)-2-(2-isopropylphenyl)-7,9-dihydro-8H-purin-8-one]",50 to 200 nM
11,"CC(C)c1ccccc1-c1ncc2[nH]c(=O)n(Cc3ccc(C(=O)N4CC(F)C4)cc3)c2n1 [Compound I-386, 9-(4-(3-fluoroazetidine-1-carbonyl)benzyl)-2-(2-isopropylphenyl)-7,9-dihydro-8H-purin-8-one]",50 to 200 nM
12,"CC(C)c1ccccc1-c1ncc2[nH]c(=O)n(Cc3ccc(C(=O)N[C@@H]4CCC[C@@H]4O)cc3)c2n1 [Compound I-387, N-((1R,2S)-2-hydroxycyclopentyl)-4-((2-(2-isopropylphenyl)-8-oxo-7,8-dihydro-9H-purin-9-yl)methyl)benzamide]",50 to 200 nM
13,"CC(C)c1ccccc1-c1ncc2[nH]c(=O)n(Cc3ccc(C(=O)N4CCC(F)(F)CC4)cc3)c2n1 [Compound I-388, 9-(4-(4,4-difluoropiperidine-1-carbonyl)benzyl)-2-(2-isopropylphenyl)-7,9-dihydro-8H-purin-8-one]",200 to 2000 nM
14,"CC(C)c1ccccc1-c1ncc2[nH]c(=O)n(Cc3ccc(C(=O)N4CCCC4)cc3)c2n1 [Compound I-389, 2-(2-isopropylphenyl)-9-(4-(pyrrolidine-1-carbonyl)benzyl)-7,9-dihydro-8H-purin-8-one]",< 50 nM
15,"CC(C)c1ccccc1-c1ncc2[nH]c(=O)n(Cc3ccc(C(=O)N4CCCC4C)cc3)c2n1 (stereo not drawn) [Compound I-390, 2-(2-isopropylphenyl)-9-(4-(2-methylpyrrolidine-1-carbonyl)benzyl)-7,9-dihydro-8H-purin-8-one]",< 50 nM
16,"COCC1(N(C)C(=O)c2ccc(Cn3c(=O)[nH]c4cnc(-c5ccccc5C(C)C)nc43)cc2)CC1 [Compound I-391, 4-((2-(2-isopropylphenyl)-8-oxo-7,8-dihydro-9H-purin-9-yl)methyl)-N-(1-(methoxymethyl)cyclopropyl)-N-methylbenzamide]",< 50 nM
